We go through 3 compounds from PMC6437697 (Journal of Medicinal Chemistry, 2019).

Common to all, as to experiment: KINOMEscan
Common to all, as to type: binding
Common to all, as to details: read-out: % control activity remaining

Assay [1] has as its target T1, MYLK2 (Homo sapiens, UniProt Q9H1R3).
T1 construct: purchased Eurofins DiscoverX KINOMEscan

Assay [2] has as its target T2, GRK1 (Homo sapiens, UniProt Q15835).
T2 construct: purchased Eurofins DiscoverX KINOMEscan
T2 sequence (Q15835 1-563): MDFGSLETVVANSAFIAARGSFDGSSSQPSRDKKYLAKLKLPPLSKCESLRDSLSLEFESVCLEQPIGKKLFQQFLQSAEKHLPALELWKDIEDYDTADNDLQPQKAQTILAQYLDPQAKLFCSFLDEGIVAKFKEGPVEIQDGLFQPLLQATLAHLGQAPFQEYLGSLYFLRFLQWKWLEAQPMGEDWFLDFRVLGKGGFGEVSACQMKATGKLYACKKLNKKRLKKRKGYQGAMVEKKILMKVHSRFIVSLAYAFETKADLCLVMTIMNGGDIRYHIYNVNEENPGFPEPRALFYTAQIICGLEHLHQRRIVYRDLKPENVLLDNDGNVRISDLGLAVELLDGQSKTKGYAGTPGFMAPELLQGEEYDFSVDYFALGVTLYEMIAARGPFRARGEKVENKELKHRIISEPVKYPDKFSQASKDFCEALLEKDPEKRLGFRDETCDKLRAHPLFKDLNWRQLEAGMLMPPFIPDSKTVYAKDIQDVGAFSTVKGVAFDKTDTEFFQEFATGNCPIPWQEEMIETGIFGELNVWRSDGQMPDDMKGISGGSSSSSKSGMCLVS

In assay [3] the target is T3, CDK5 (Homo sapiens, UniProt Q00535).
T3 construct: purchased Eurofins DiscoverX KINOMEscan
T3 sequence (Q00535 whole entry): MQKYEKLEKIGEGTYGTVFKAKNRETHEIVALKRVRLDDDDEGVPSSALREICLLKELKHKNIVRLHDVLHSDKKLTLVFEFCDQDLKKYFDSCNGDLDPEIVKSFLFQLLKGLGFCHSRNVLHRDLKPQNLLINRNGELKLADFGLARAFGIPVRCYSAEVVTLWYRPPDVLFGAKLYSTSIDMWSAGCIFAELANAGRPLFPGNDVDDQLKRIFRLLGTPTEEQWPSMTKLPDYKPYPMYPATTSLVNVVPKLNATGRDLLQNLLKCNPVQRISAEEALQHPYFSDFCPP

Assay [4] deals with T4, BRK (Homo sapiens, UniProt Q13882).
T4 construct: purchased Eurofins DiscoverX KINOMEscan
T4 sequence (Q13882 whole entry): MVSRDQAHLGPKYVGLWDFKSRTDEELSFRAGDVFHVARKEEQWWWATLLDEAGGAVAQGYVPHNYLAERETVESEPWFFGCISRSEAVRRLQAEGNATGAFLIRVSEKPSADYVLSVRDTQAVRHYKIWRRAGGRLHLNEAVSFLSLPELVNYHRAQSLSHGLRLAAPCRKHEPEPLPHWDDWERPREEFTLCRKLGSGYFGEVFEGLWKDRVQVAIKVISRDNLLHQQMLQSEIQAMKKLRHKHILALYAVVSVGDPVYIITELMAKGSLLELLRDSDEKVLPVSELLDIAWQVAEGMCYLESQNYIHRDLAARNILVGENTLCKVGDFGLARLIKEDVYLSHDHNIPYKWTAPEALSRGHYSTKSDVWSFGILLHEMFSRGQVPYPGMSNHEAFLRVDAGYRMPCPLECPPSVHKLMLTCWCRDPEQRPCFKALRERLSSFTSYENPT

Assay [5] addresses T5, PKN2 (Homo sapiens, UniProt Q16513).
T5 construct: purchased Eurofins DiscoverX KINOMEscan

In assay [6] the target is T6, PAK7 (Homo sapiens, UniProt Q9P286).
T6 construct: purchased Eurofins DiscoverX KINOMEscan
T6 sequence (Q9P286 whole entry): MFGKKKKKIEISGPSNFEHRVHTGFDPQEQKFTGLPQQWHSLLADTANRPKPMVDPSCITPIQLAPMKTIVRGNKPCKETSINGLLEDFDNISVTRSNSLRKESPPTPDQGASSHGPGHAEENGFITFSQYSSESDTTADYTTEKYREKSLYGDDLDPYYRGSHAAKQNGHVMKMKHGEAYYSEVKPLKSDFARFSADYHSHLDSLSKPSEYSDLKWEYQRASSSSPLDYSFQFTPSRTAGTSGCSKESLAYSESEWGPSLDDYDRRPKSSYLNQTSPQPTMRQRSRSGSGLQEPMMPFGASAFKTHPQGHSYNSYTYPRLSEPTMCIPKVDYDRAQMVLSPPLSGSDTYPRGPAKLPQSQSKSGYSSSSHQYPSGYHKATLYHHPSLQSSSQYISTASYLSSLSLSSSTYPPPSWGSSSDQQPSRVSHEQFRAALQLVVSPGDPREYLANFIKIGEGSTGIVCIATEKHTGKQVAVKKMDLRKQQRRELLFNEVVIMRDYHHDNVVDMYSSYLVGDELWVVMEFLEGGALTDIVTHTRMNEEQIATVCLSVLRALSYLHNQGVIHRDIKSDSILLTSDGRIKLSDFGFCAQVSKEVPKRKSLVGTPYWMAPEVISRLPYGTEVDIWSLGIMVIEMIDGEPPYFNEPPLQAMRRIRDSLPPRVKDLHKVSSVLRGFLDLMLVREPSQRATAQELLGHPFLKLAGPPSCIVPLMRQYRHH

Assay [7] has as its target T7, PRKD3 (Homo sapiens, UniProt O94806).
T7 construct: purchased Eurofins DiscoverX KINOMEscan
T7 sequence (O94806 1-890): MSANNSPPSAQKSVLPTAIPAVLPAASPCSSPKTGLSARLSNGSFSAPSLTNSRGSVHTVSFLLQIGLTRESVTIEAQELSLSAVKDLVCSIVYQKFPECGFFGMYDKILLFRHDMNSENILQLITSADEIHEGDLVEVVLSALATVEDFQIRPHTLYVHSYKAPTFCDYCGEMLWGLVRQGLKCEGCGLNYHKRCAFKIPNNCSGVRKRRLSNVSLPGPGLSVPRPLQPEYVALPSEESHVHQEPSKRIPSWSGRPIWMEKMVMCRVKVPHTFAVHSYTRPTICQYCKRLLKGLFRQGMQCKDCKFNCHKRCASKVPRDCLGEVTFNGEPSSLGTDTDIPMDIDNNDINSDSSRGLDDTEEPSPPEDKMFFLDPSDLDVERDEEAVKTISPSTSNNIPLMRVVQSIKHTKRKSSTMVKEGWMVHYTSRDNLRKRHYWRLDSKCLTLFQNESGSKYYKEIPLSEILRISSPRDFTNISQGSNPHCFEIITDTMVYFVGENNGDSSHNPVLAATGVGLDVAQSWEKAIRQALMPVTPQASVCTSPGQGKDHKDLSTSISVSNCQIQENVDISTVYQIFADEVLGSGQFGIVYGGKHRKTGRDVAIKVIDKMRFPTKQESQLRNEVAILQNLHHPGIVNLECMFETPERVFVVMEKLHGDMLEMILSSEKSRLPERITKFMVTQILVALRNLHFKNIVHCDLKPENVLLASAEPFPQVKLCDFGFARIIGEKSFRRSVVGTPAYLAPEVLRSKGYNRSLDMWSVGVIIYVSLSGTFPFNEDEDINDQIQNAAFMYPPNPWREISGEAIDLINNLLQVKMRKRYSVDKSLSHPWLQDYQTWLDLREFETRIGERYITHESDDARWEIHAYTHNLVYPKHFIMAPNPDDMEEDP

The target in assay [8] is T8, DAPK2 (Homo sapiens, UniProt Q9UIK4).
T8 construct: purchased Eurofins DiscoverX KINOMEscan
T8 sequence (Q9UIK4 whole entry): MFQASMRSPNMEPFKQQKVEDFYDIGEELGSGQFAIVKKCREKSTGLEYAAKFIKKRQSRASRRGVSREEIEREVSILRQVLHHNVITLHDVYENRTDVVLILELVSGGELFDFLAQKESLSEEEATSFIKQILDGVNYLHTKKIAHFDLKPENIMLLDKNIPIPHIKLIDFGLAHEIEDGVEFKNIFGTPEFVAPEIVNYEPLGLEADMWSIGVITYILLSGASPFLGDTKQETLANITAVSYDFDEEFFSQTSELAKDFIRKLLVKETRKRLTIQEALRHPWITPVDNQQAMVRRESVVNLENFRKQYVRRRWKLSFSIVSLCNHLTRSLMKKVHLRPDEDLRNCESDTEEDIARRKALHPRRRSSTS

Assay [9] addresses T9, PIK3CA(Q546K) (Homo sapiens, UniProt P42336, Q546K).
T9 construct: purchased Eurofins DiscoverX KINOMEscan

Assay [10] concerns the target T10, MARK1 (Homo sapiens, UniProt Q9P0L2).
T10 construct: purchased Eurofins DiscoverX KINOMEscan

Assay [11] has as its target T11, CAMK1G (Homo sapiens, UniProt Q96NX5).
T11 construct: purchased Eurofins DiscoverX KINOMEscan

The target of assay [12] is T12, TNNI3K (Homo sapiens, UniProt Q59H18).
T12 construct: purchased Eurofins DiscoverX KINOMEscan
T12 sequence (Q59H18 1-835): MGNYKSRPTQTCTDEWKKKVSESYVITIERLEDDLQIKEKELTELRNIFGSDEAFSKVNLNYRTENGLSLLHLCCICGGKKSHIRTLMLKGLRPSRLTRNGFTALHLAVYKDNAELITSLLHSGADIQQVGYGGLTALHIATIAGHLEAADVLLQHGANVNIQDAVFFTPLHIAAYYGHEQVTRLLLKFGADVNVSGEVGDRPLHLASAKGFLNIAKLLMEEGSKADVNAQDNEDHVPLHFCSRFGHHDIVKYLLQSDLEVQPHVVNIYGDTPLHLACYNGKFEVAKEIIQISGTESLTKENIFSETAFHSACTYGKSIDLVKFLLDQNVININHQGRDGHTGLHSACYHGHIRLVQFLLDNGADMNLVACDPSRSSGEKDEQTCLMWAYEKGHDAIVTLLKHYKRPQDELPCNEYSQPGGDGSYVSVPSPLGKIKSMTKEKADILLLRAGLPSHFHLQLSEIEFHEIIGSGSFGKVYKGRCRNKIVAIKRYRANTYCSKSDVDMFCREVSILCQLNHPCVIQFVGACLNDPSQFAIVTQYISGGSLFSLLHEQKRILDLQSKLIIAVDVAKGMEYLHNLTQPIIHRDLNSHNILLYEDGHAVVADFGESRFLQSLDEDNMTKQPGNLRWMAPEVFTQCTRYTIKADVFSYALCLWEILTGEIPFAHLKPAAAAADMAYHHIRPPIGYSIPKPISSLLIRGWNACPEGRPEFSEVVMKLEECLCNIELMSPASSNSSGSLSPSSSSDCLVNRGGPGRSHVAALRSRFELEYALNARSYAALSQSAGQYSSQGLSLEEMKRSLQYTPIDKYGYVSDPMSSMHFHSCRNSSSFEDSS

The target in assay [13] is T13, ABL1(T315I)-phosphorylated (Homo sapiens, UniProt P00519, T315I).
T13 construct: purchased Eurofins DiscoverX KINOMEscan

Each structure is given as a SMILES string.

T9 sequence (P42336 whole entry Q546K): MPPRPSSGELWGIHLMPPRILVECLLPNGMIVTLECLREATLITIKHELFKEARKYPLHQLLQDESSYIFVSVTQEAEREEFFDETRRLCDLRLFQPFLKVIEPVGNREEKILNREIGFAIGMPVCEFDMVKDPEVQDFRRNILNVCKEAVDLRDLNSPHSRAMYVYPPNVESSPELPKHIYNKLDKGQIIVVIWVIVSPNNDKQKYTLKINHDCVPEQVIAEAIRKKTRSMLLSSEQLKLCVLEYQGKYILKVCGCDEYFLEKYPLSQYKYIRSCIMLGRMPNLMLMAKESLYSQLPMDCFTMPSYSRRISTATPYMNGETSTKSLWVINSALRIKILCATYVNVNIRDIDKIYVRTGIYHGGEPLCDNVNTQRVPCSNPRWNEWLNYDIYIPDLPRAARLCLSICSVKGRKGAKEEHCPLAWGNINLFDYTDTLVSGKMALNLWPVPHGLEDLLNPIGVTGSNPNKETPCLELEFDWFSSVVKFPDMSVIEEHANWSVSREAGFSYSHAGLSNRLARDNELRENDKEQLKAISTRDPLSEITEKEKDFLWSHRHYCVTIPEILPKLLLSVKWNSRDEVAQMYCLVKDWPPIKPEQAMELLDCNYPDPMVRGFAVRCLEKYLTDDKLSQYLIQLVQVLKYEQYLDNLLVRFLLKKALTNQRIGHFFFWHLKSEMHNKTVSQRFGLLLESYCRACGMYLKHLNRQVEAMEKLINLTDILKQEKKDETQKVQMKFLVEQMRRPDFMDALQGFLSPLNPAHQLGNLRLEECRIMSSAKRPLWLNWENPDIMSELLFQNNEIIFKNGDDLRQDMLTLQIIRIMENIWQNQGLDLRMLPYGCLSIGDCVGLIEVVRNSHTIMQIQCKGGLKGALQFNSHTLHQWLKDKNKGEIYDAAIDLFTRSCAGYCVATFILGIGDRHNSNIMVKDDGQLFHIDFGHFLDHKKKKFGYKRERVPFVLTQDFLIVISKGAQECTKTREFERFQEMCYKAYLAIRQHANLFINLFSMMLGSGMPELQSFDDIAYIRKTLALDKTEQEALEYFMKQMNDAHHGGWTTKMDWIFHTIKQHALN
T5 sequence (Q16513 whole entry): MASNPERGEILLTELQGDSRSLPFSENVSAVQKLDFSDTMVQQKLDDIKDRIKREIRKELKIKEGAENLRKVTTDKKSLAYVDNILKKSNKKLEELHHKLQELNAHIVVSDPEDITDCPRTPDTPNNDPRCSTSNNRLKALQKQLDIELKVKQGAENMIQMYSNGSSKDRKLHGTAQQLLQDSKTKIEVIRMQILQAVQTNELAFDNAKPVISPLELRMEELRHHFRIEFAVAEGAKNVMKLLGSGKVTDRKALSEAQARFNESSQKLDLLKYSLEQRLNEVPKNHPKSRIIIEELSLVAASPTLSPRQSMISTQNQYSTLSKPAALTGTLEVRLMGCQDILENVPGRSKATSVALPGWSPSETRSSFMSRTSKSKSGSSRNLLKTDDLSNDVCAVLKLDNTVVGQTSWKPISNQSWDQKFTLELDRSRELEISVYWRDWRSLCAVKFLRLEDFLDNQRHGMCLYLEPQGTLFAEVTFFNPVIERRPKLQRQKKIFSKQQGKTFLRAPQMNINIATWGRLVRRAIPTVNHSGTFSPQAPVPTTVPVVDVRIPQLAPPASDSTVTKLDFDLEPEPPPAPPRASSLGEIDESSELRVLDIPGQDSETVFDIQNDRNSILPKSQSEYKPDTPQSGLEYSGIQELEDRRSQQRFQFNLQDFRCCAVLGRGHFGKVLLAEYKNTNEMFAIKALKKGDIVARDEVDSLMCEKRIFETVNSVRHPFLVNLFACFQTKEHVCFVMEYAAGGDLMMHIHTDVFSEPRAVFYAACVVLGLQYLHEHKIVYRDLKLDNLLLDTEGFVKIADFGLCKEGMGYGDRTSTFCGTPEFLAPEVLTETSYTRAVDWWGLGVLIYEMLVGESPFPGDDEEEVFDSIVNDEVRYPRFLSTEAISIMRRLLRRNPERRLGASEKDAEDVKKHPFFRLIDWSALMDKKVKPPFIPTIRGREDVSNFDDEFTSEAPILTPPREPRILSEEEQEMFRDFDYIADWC
T1 sequence (Q9H1R3 whole entry): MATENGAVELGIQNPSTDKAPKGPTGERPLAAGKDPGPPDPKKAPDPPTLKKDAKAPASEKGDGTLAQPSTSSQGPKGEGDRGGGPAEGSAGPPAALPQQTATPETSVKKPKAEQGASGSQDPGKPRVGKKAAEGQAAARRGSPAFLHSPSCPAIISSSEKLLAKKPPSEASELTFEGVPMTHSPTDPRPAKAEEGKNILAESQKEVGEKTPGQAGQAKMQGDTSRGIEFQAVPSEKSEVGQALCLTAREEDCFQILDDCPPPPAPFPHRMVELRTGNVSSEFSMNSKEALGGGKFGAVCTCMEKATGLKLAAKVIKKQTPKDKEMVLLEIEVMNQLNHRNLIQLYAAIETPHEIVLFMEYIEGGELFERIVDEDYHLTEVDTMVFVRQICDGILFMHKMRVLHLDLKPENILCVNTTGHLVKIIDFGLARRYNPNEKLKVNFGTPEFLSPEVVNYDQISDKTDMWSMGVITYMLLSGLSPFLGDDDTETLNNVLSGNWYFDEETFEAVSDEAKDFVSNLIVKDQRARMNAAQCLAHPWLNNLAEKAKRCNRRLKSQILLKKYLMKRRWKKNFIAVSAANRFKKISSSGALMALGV
T11 sequence (Q96NX5 whole entry): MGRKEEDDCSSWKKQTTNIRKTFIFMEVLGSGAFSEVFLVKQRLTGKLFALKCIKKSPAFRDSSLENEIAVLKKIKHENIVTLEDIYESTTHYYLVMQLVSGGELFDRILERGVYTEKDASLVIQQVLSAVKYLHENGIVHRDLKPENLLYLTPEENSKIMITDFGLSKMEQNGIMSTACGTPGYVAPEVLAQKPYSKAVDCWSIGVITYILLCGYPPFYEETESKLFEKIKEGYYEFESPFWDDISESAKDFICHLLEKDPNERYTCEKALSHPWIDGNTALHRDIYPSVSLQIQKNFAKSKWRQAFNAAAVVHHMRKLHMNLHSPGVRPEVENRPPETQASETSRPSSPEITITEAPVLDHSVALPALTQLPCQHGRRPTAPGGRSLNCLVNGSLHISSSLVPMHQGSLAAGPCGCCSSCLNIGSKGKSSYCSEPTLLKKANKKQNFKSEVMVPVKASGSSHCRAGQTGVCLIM

For `Clc1cc(NCC2CC2)c2ncc(-c3ccc4[nH]ncc4c3)n2n1` [compound 2, 6-Chloro-N-(cyclopropylmethyl)-3-(1H-indazol-5-yl)imidazo[1,2-b]pyridazin-8-amine], the remaining binding at 1 µM in assay [1] was determined as 82%; in [2], 100%; in assay [3], 100%; in assay [4], 87%; in assay [5], 100%; in [6], 98%. Besides, the remaining binding at 1 µM in assay [7] worked out at 98%; in [8] it was 91%; in assay [9], 88%; in assay [10], 86%; in assay [11], 76%; in assay [12], 97%. For the same compound, the remaining binding at 1 µM in assay [13] is 94%.

Take `O=C(CN1CCOCC1)N[C@H]1CC[C@H](Nc2cc(Cl)nn3c(-c4ccc5[nH]ncc5c4)cnc23)CC1` [compound 26]: the remaining binding at 1 µM was 52% in assay [1]; 80% in [2]; 92% in assay [3]; 85% in [4]; 100% in [5]; 93% in assay [6]. Also, the remaining binding at 1 µM stood at 94% in assay [7]; 69% in assay [8]; 100% in [9]; 94% in assay [10]; 51% in assay [11]; 100% in [12]. For the same compound, the remaining binding at 1 µM in [13] was found to be 50%.

For the compound `CN1CCC(CNc2cc(Cl)nn3c(-c4cc5nc(Nc6ccccc6)[nH]c5cc4F)cnc23)CC1` [compound 31, 6-Chloro-3-(6-fluoro-2-(phenylamino)-1H-benzo[d]imidazol-5-yl)-N-((1-methylpiperidin-4-yl)methyl)imidazo[1,2-b]pyridazin-8-amine], the remaining binding at 1 µM in assay [1] came to 89%; in assay [2] it was 82%; in [3], 99%; in assay [4], 93%; in assay [5] it was 98%; in assay [6] it was 95%. In addition, the remaining binding at 1 µM in assay [7] was determined as 100%; in [8] it was 98%; in [9], 81%; in assay [10], 94%; in assay [11], 100%; in assay [12], 100%. In addition, the remaining binding at 1 µM in [13] amounted to 87%.
